Data taken from article PMC7689791 (Journal of Clinical Pharmacology, 2020).
Where “and” joins values, the source holds several entries; their conditions need not be identical. Identical values can stand only once. Like-named read-outs stand apart in the source and are kept apart here.

Tests used:
[1] = Model-predicted / simulated lemborexant exposure across covariates; set-up: species or system human
CYP3A = settings: stand-alone DDI studies and PBPK modeling; cited from earlier work
[2] = Observed incidence of treatment-emergent adverse events in clinical studies
[3] = study 201, 15-day treatment, cited from earlier work
[4] = Population PK final model; type: in vivo, human
[5] = coadministration with famotidine; cited from earlier work
[6] = cited from earlier work
[7] = cited from earlier work; remark: listed apart in the source
[8] = Logistic regression exposure-response analysis of TEAE probability; settings: for Headache TEAE probability / Influenza TEAE probability / Nasopharyngitis TEAE probability / Somnolence TEAE probability / Upper Respiratory Tract Infection TEAE probability / Urinary Tract Infection TEAE probability: person
[9] = studies 202, 303, 304, 5 to 15 mg
[10] = oral [14C]lemborexant, healthy subjects, ref study E2006-A001-007, NCT02046213
[11] = 5 mg, 5th quantile, Cav,ss 6.30 ng/mL
[12] = 5 mg, 25th quantile, Cav,ss 7.90 ng/mL
[13] = 5 mg, 50th quantile, Cav,ss 10.00 ng/mL
[14] = 5 mg, 75th quantile, Cav,ss 14.00 ng/mL
[15] = 5 mg, 95th quantile, Cav,ss 19.00 ng/mL
[16] = 10 mg, 5th quantile, Cav,ss 12.00 ng/mL
[17] = 10 mg, 25th quantile, Cav,ss 17.00 ng/mL
[18] = 10 mg, 50th quantile, Cav,ss 21.00 ng/mL
[19] = 10 mg, 75th quantile, Cav,ss 27.00 ng/mL
[20] = 10 mg, 95th quantile, Cav,ss 37.00 ng/mL

Cc1ncc(OC[C@@]2(c3cccc(F)c3)C[C@H]2C(=O)Nc2ccc(F)cn2)c(C)n1 [Lemborexant]
Higher exposure for high ALP ([1]; ALP 150 U/L, relative to population average): 9% | Lower exposure for underweight ([1]; BMI 15 kg/m^2, relative to typical subject with normal BMI): 25% | Higher exposure for class 1 obesity ([1]; BMI 32 kg/m^2, relative to typical subject with normal BMI): 11% | Exposure elevation in high ALP subjects ([1]; high ALP): 8% | Exposure elevation in obese subjects ([1]; high BMI): up to 20% | Higher CL/F for ALP at the upper range of normal over the typical subject ([1]; model prediction): 7% | Higher exposure in the elderly ([1]; model prediction, relative to population average / adult insomnia population): 26% | Interaction with moderate and strong CYP3A inhibitors (CYP3A): clinically meaningful interaction | Somnolence rate, treatment ([2]; 9-month SUNRISE 2 study): 11% | Nasopharyngitis frequency, active treatment [2, 9]: 8.6% | Upper respiratory tract infection frequency, active treatment [2, 9]: 3.2% | Urinary tract infection frequency, active treatment [2, 9]: 2.5% | Somnolence rate, treatment ([2]; study 202): 6% | Somnolence frequency ([3]; 1-mg group): 3.1% | Somnolence frequency ([3]; 25-mg group): 22.0% | Cav,ss ([4]; 5 mg, 5th quantile of Cav,ss): 0.0063 µg/mL | Cav,ss ([4]; 5 mg, 25th quantile of Cav,ss): 0.0079 µg/mL | Cav,ss ([4]; 5 mg, 50th quantile of Cav,ss): 0.01 µg/mL | Cav,ss ([4]; 5 mg, 75th quantile of Cav,ss): 0.014 µg/mL | Cav,ss ([4]; 5 mg, 95th quantile of Cav,ss): 0.019 µg/mL | Cav,ss ([4]; 10 mg, 5th quantile of Cav,ss): 0.012 µg/mL | Cav,ss ([4]; 10 mg, 25th quantile of Cav,ss): 0.017 µg/mL | Cav,ss ([4]; 10 mg, 50th quantile of Cav,ss): 0.021 µg/mL | Cav,ss ([4]; 10 mg, 75th quantile of Cav,ss): 0.027 µg/mL | Cav,ss ([4]; 10 mg, 95th quantile of Cav,ss): 0.037 µg/mL | Accumulation ratio ([4]; bedtime once-daily dosing): 1.9 | Effect size of age covariate on CL/F ([4]; elderly (>65 years old) versus adults, univariate forward addition): 126% | Oral clearance lower in the elderly ([4]; elderly (≥65 years)): 26% | CL/F, elderly (categorical covariate factor) ([4]; final model estimate): 0.739 | Interindividual variability CL/F ([4]; final model estimate): 48.1 %CV | Interindividual variability Q3/F ([4]; final model estimate): 56.8 %CV | Interindividual variability Q4/F ([4]; final model estimate): 46.5 %CV | Interindividual variability V2/F ([4]; final model estimate): 142 %CV | Interindividual variability V3/F ([4]; final model estimate): 82.0 %CV | Interindividual variability V4/F ([4]; final model estimate): 41.4 %CV | Q3/F ([4]; final model estimate): 32.1 L/h | Q4/F ([4]; final model estimate): 31.0 L/h | Residual variability, additive (TAD >3 h) ([4]; final model estimate): 0.0189 ng/mL | Residual variability, additive (TAD ≤3 h) ([4]; final model estimate): 2.62 ng/mL | Residual variability, proportional (TAD > 3 h) ([4]; final model estimate): 14.3 % CV | Residual variability, proportional (TAD ≤ 3 h) ([4]; final model estimate): 32.9 % CV | V2/F ([4]; final model estimate): 9.09 L | V3/F ([4]; final model estimate): 278 L | V4/F ([4]; final model estimate): 783 L | CL/F ([4]; final model estimate, typical subject): 23 L/h and 22.7 L/h | CL/F ([4]; final model, bootstrap median): 23.7 L/h | CL/F, elderly (categorical covariate factor) ([4]; final model, bootstrap median): 0.713 | Interindividual variability CL/F ([4]; final model, bootstrap median): 46.8 %CV | Interindividual variability Q3/F ([4]; final model, bootstrap median): 42.6 %CV | Interindividual variability Q4/F ([4]; final model, bootstrap median): 52.0 %CV | Interindividual variability V2/F ([4]; final model, bootstrap median): 131 %CV | Interindividual variability V3/F ([4]; final model, bootstrap median): 66.1 %CV | Interindividual variability V4/F ([4]; final model, bootstrap median): 38.3 %CV | Q3/F ([4]; final model, bootstrap median): 33.0 L/h | Q4/F ([4]; final model, bootstrap median): 30.1 L/h | Residual variability, additive (TAD >3 h) ([4]; final model, bootstrap median): 0.0203 ng/mL | Residual variability, additive (TAD ≤3 h) ([4]; final model, bootstrap median): 2.46 ng/mL | Residual variability, proportional (TAD > 3 h) ([4]; final model, bootstrap median): 14.3 % CV | Residual variability, proportional (TAD ≤ 3 h) ([4]; final model, bootstrap median): 33.2 % CV | V2/F ([4]; final model, bootstrap median): 11.4 L | V3/F ([4]; final model, bootstrap median): 289 L | V4/F ([4]; final model, bootstrap median): 779 L | ALAG1 ([4]; final model, fixed): 0.403 h | D1, capsule ([4]; final model, fixed): 0.467 h | D1, nighttime dosing (covariate factor) ([4]; final model, fixed): 2.33 | D1, tablet (covariate factor) ([4]; final model, fixed): 0.254 | F1, food (covariate factor) ([4]; final model, fixed): 1.21 | Interindividual variability D1 ([4]; final model, fixed): 167 %CV | Interindividual variability F1 ([4]; final model, fixed): 68.1 %CV | Interindividual variability Ka ([4]; final model, fixed): 43.8 %CV | Ka, capsule ([4]; final model, fixed): 0.532 h⁻¹ | Ka, food (covariate factor) ([4]; final model, fixed): 0.695 | Ka, tablet (covariate factor) ([4]; final model, fixed): 1.12 | Contribution of beta half-life to total dispositional AUC ([4]; from microrate constants): 0.2% | Contribution of gamma half-life to total dispositional AUC ([4]; from microrate constants): 0.4% | Fraction of alpha disposition phase of total disposition AUC ([4]; from microrate constants): 99.4% | Decrease in lemborexant Cmax [5]: 27% | Delay in the median tmax [5]: 30 min | Effect on lemborexant AUC0-t and AUC0-inf [5]: no significant effect | Fraction of the dose bioavailable [6, 10]: at least 87% | Unchanged lemborexant in feces [6, 10]: 13.0% | Unchanged lemborexant in urine [6, 10]: not detected | Administered dose recovered as unchanged drug in urine ([6]; single ascending-dose study, ref study 001, NCT01463098): < 1% | calculated logP [7]: 3.2 | Headache TEAE probability [8, 11]: 11.0 (7.8‐14.0) | Influenza TEAE probability [8, 11]: 3.8 (2.3‐6.2) | Nasopharyngitis TEAE probability [8, 11]: 10.0 (7.5‐14.0) | Somnolence TEAE probability [8, 11]: 7.2 (5.3‐9.7) | Upper Respiratory Tract Infection TEAE probability [8, 11]: 4.7 (2.9‐7.3) | Urinary Tract Infection TEAE probability [8, 11]: 2.0 (1.2‐3.5) | Headache TEAE probability [8, 12]: 9.8 (7.6‐13.0) | Influenza TEAE probability [8, 12]: 3.6 (2.3‐5.5) | Nasopharyngitis TEAE probability [8, 12]: 9.5 (7.3‐12.0) | Somnolence TEAE probability [8, 12]: 7.4 (5.7‐9.7) | Upper Respiratory Tract Infection TEAE probability [8, 12]: 4.4 (2.9‐6.4) | Urinary Tract Infection TEAE probability [8, 12]: 2.1 (1.3‐3.5) | Headache TEAE probability [8, 13]: 9.2 (7.3‐11.0) | Influenza TEAE probability [8, 13]: 3.4 (2.3‐4.9) | Nasopharyngitis TEAE probability [8, 13]: 8.9 (7.1‐11.0) | Somnolence TEAE probability [8, 13]: 7.7 (6.1‐9.7) | Upper Respiratory Tract Infection TEAE probability [8, 13]: 4.1 (2.9‐5.7) | Urinary Tract Infection TEAE probability [8, 13]: 2.3 (1.4‐3.5) | Headache TEAE probability [8, 14]: 8.3 (6.8‐10.0) | Influenza TEAE probability [8, 14]: 3.1 (2.2‐4.3) | Nasopharyngitis TEAE probability [8, 14]: 8.1 (6.6‐9.8) | Somnolence TEAE probability [8, 14]: 8.1 (6.6‐9.9) | Upper Respiratory Tract Infection TEAE probability [8, 14]: 3.6 (2.7‐4.9) | Urinary Tract Infection TEAE probability [8, 14]: 2.5 (1.7‐3.6) | Headache TEAE probability [8, 15]: 6.8 (5.3‐8.6) | Influenza TEAE probability [8, 15]: 2.6 (1.8‐3.9) | Nasopharyngitis TEAE probability [8, 15]: 6.7 (5.2‐8.6) | Somnolence TEAE probability [8, 15]: 8.9 (7.3‐11.0) | Upper Respiratory Tract Infection TEAE probability [8, 15]: 3.0 (2.0‐4.3) | Urinary Tract Infection TEAE probability [8, 15]: 2.9 (2.0‐4.1) | Headache TEAE probability [8, 16]: 9.2 (7.4‐12.0) | Influenza TEAE probability [8, 16]: 3.4 (2.3‐4.9) | Nasopharyngitis TEAE probability [8, 16]: 8.9 (7.1‐11.0) | Somnolence TEAE probability [8, 16]: 7.7 (6.0‐9.7) | Upper Respiratory Tract Infection TEAE probability [8, 16]: 4.1 (2.9‐5.7) | Urinary Tract Infection TEAE probability [8, 16]: 2.2 (1.4‐3.5) | Headache TEAE probability [8, 17]: 7.7 (6.3‐9.4) | Influenza TEAE probability [8, 17]: 2.9 (2.1‐4.1) | Nasopharyngitis TEAE probability [8, 17]: 7.6 (6.2‐9.3) | Somnolence TEAE probability [8, 17]: 8.4 (6.9‐10.0) | Upper Respiratory Tract Infection TEAE probability [8, 17]: 3.4 (2.5‐4.6) | Urinary Tract Infection TEAE probability [8, 17]: 2.6 (1.8‐3.7) | Headache TEAE probability [8, 18]: 6.8 (5.3‐8.6) | Influenza TEAE probability [8, 18]: 2.6 (1.8‐3.9) | Nasopharyngitis TEAE probability [8, 18]: 6.7 (5.2‐8.6) | Somnolence TEAE probability [8, 18]: 8.9 (7.3‐11.0) | Upper Respiratory Tract Infection TEAE probability [8, 18]: 3.0 (2.0‐4.3) | Urinary Tract Infection TEAE probability [8, 18]: 2.9 (2.0‐4.0) | Headache TEAE probability [8, 19]: 5.7 (4.0‐8.1) | Influenza TEAE probability [8, 19]: 2.3 (1.3‐4.0) | Nasopharyngitis TEAE probability [8, 19]: 5.8 (4.0‐8.1) | Somnolence TEAE probability [8, 19]: 9.6 (7.6‐12.0) | Upper Respiratory Tract Infection TEAE probability [8, 19]: 2.5 (1.5‐4.3) | Urinary Tract Infection TEAE probability [8, 19]: 3.3 (2.2‐4.9) | Headache TEAE probability [8, 20]: 3.9 (2.0‐7.4) | Influenza TEAE probability [8, 20]: 1.7 (0.6‐4.7) | Nasopharyngitis TEAE probability [8, 20]: 4.0 (2.1‐7.7) | Somnolence TEAE probability [8, 20]: 11.0 (7.5‐17.0) | Upper Respiratory Tract Infection TEAE probability [8, 20]: 1.7 (0.6‐4.6) | Urinary Tract Infection TEAE probability [8, 20]: 4.4 (2.2‐8.7) | Cav,ss as linear predictor of the probability of specific TEAEs (somnolence, nasopharyngitis, flu/influenza, urinary tract infection, upper respiratory tract infection, headache) ([8]; with and without adjustment for age): not a clinically meaningful linear predictor
